Measured values: PubChem BioAssay AID1963867 (Molecular Pharmacology Branch, DTP, NCI, 2024)

System: KRAS-mutant PDC tumor spheroid with HUVEC/MSC, viability
Experiment: Anticancer human tumor 327498-153-R-J2-PDC patient-derived uterine carcinosarcoma cell line growth inhibition [KRAS2]
Conditions: for IC50: curve of first compound; for viability, T/C: stronger effect = lower value
Procedure, shortened: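 KRAS-mutant tumor cells were grown as spheroids with HUVEC endothelial cells and human MSCs as stroma. Targeted agents were tested alone and with KRAS pathway inhibitors. Doses started at or near clinical Cmax, or 10 microM, descending half-log.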

[1] = second compound 0.1 µM, first compound 0.0316 µM
[2] = second compound 0.1 µM, first compound 0.1 µM
[3] = second compound 0.316 µM, first compound 0.0316 µM
[4] = second compound 0.316 µM, first compound 0.1 µM
[5] = second compound 1 µM, first compound 0.0316 µM
[6] = second compound 1 µM, first compound 0.1 µM
[7] = second compound 3.16 µM, first compound 0.0316 µM
[8] = second compound 3.16 µM, first compound 0.1 µM
[9] = second compound 10 µM, first compound 0.0316 µM
[10] = second compound 10 µM, first compound 0.1 µM
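Also: spheroids exposed to agents for seven days before reading.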
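For viability, T/C in this document: 100% = DMSO vehicle wells so lower means fewer viable cells.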

For `CC(C)NCC(C(=O)N1CCN(c2ncnc3c2C(C)CC3O)CC1)c1ccc(Cl)cc1` (stereo not given) + COc1cc2nc(C)nc(NC(C)c3cc(N)cc(C(F)(F)F)c3)c2cc1OC1CCOC1, the IC50 (second compound 0.1 µM) was 0.195 µM, the IC50 (second compound 0.316 µM) was 0.102 µM and the IC50 (second compound 1 µM) was 0.0907 µM. For the same compound, the IC50 (second compound 3.16 µM) was less than 0.0316 µM, the IC50 (second compound 10 µM) was less than 0.0316 µM and the viability, T/C [1] was 70.8%. It also gave a viability, T/C [2] of 57.7%, a viability, T/C (second compound 0.1 µM, first compound 0.316 µM) of 44% and a viability, T/C (second compound 0.1 µM, first compound 1 µM) of 26.3%. The viability, T/C (second compound 0.1 µM, first compound 3.16 µM) was 9.54%, the viability, T/C (second compound 0.1 µM, first compound 10 µM) was 9.87% and the viability, T/C [3] was 62.5%. The viability, T/C [4] was 49.5%, the viability, T/C (second compound 0.316 µM, first compound 0.316 µM) was 34.4% and the viability, T/C (second compound 0.316 µM, first compound 1 µM) was 21.7%. It also gave a viability, T/C (second compound 0.316 µM, first compound 3.16 µM) of 8.09%, a viability, T/C (second compound 0.316 µM, first compound 10 µM) of 9.57% and a viability, T/C [5] of 60%. It also gave a viability, T/C [6] of 51%, a viability, T/C (second compound 1 µM, first compound 0.316 µM) of 28.8% and a viability, T/C (second compound 1 µM, first compound 1 µM) of 17.7%. The viability, T/C (second compound 1 µM, first compound 3.16 µM) was 7.32%, the viability, T/C (second compound 1 µM, first compound 10 µM) was 3.46% and the viability, T/C [7] was 54.4%. It also gave a viability, T/C [8] of 42.1%, a viability, T/C (second compound 3.16 µM, first compound 0.316 µM) of 43.6% and a viability, T/C (second compound 3.16 µM, first compound 1 µM) of 14.2%. For the same compound, the viability, T/C (second compound 3.16 µM, first compound 3.16 µM) was 8.44%, the viability, T/C (second compound 3.16 µM, first compound 10 µM) was 8.27% and the viability, T/C [9] was 37.8%. It also gave a viability, T/C [10] of 27.3%, a viability, T/C (second compound 10 µM, first compound 0.316 µM) of 16.6% and a viability, T/C (second compound 10 µM, first compound 1 µM) of 5.51%. The viability, T/C (second compound 10 µM, first compound 3.16 µM) was 0.16% and the viability, T/C (second compound 10 µM, first compound 10 µM) was 0.34%.
`CC(C)n1nc(-c2ccc3oc(N)nc3c2)c2c(N)ncnc21` + C=CC(=O)N1CCN(c2nc(=O)n(-c3c(C)ccnc3C(C)C)c3nc(-c4c(O)cccc4F)c(F)cc23)C(C)C1 was tested, and the IC50 (second compound 0.1 µM) was 0.000576 µM, the IC50 (second compound 0.316 µM) was less than 0.000316 µM and the IC50 (second compound 1 µM) was less than 0.000316 µM. The IC50 (second compound 3.16 µM) was less than 0.000316 µM, the IC50 (second compound 10 µM) was less than 0.000316 µM and the viability, T/C (second compound 0.1 µM, first compound 0.000316 µM) was 57.6%. It also gave a viability, T/C (second compound 0.1 µM, first compound 0.001 µM) of 40.7%, a viability, T/C (second compound 0.1 µM, first compound 0.00316 µM) of 34.6% and a viability, T/C (second compound 0.1 µM, first compound 0.01 µM) of 17.6%. The viability, T/C [1] was 8.67%, the viability, T/C [2] was 5.6% and the viability, T/C (second compound 0.316 µM, first compound 0.000316 µM) was 45.4%. It also gave a viability, T/C (second compound 0.316 µM, first compound 0.001 µM) of 41.2%, a viability, T/C (second compound 0.316 µM, first compound 0.00316 µM) of 26.1% and a viability, T/C (second compound 0.316 µM, first compound 0.01 µM) of 14.3%. For the same compound, the viability, T/C [3] was 9.71%, the viability, T/C [4] was 5.39% and the viability, T/C (second compound 1 µM, first compound 0.000316 µM) was 49.5%. For the same compound, the viability, T/C (second compound 1 µM, first compound 0.001 µM) was 38%, the viability, T/C (second compound 1 µM, first compound 0.00316 µM) was 23.5% and the viability, T/C (second compound 1 µM, first compound 0.01 µM) was 14.4%. For the same compound, the viability, T/C [5] was 7.05%, the viability, T/C [6] was 5.38% and the viability, T/C (second compound 3.16 µM, first compound 0.000316 µM) was 42.1%. For the same compound, the viability, T/C (second compound 3.16 µM, first compound 0.001 µM) was 33.2%, the viability, T/C (second compound 3.16 µM, first compound 0.00316 µM) was 21.5% and the viability, T/C (second compound 3.16 µM, first compound 0.01 µM) was 13.9%. For the same compound, the viability, T/C [7] was 6.92%, the viability, T/C [8] was 6.19% and the viability, T/C (second compound 10 µM, first compound 0.000316 µM) was 31.1%. For the same compound, the viability, T/C (second compound 10 µM, first compound 0.001 µM) was 25.3%, the viability, T/C (second compound 10 µM, first compound 0.00316 µM) was 19.1% and the viability, T/C (second compound 10 µM, first compound 0.01 µM) was 8.99%. The viability, T/C [9] was 5.88% and the viability, T/C [10] was 5.69%.
